Holding throughout (type): functional
In one experiment the test system is Aspergillus fumigatus. The experiment in a line: Antifungal activity against Aspergillus fumigatus CGMCC 3.7795 assessed as fungal growth inhibition by CLSI based serial microbroth dilution method.
The test system of experiment [1] is Candida albicans. The experiment can be described thus: Antifungal activity against Candida albicans ATCC SC5314 assessed as fungal growth inhibition by CLSI based serial microbroth dilution method. A general note: Dilution methods test growth across graded concentrations, often in twofold steps.
In the next experiment the test system is Cryptococcus neoformans. The experiment in a line: Antifungal activity against Cryptococcus neoformans CGMCC 2.3161 assessed as fungal growth inhibition by CLSI based serial microbroth dilution method.
A further experiment has as its system Pichia kudriavzevii. The experiment in a line: Antifungal activity against Candida krusei GIM 2.1 assessed as fungal growth inhibition by CLSI based serial microbroth dilution method.
In experiment [2] the test system is Candida albicans. The experiment can be described thus: Antifungal activity against Candida albicans CPCC400616 assessed as fungal growth inhibition by CLSI based serial microbroth dilution method.
The subject of a further experiment is Candida tropicalis. The experiment can be described thus: Antifungal activity against Candida tropicalis CGMCC 2.3739 assessed as fungal growth inhibition by CLSI based serial microbroth dilution method.
The subject of a further experiment is Nakaseomyces glabratus. The experiment can be described thus: Antifungal activity against Candida glabrata clinical isolate assessed as fungal growth inhibition by CLSI based serial microbroth dilution method.
For another experiment, the system named is Candida parapsilosis. The experiment can be described thus: Antifungal activity against Candida parapsilosis GIM 2.190 assessed as fungal growth inhibition by CLSI based serial microbroth dilution method. The conditions noted are these: Lodderomyces parapsilosis.

For orientation: MIC means the smallest concentration in the dilution series that meets the test's criterion for growth inhibition.

Converted amounts (≈) assume the structure as drawn.

As for `FC(F)(F)c1cccc(CC2(Cn3ccnc3)COC(c3ccc(-c4ccsc4)cc3)=N2)c1` (stereo not given), the MIC with Aspergillus fumigatus, in the experiment on Candida albicans [1], with Cryptococcus neoformans, in the experiment with Pichia kudriavzevii, in the experiment with Candida albicans [2] and in the experiment with Candida tropicalis was over 64 µg/mL throughout. The MIC in the experiment with Nakaseomyces glabratus and in the experiment with Candida parapsilosis was over 64 µg/mL in each case.

Consider `Clc1ccc(CC2(Cn3ccnc3)COC(c3ccc(-c4ccsc4)cc3)=N2)cc1` (stereo not given), for which the MIC in the experiment with Aspergillus fumigatus, with Candida albicans [1], in the experiment on Cryptococcus neoformans, in the experiment on Pichia kudriavzevii, in the experiment with Candida albicans [2] and in the experiment with Candida tropicalis was over 64 µg/mL each time. In addition, the MIC in the experiment on Nakaseomyces glabratus and with Candida parapsilosis was over 64 µg/mL in each case.

Consider `Brc1ccc(C2=NC(Cc3ccccc3)(Cn3ccnc3)CO2)cc1` (stereo not given), for which the MIC with Aspergillus fumigatus was over 64 µg/mL; with Candida albicans [1] it was over 64 µg/mL; with Cryptococcus neoformans, 4 µg/mL (≈ 10.1 µM); in the experiment on Pichia kudriavzevii it was over 64 µg/mL; in the experiment with Candida albicans [2], over 64 µg/mL; with Candida tropicalis it was over 64 µg/mL. Further, the MIC with Nakaseomyces glabratus and in the experiment with Candida parapsilosis was over 64 µg/mL in each case.

Turning to `CCC(C)n1ncn(-c2ccc(N3CCN(c4ccc(OCC5COC(Cn6cncn6)(c6ccc(Cl)cc6Cl)O5)cc4)CC3)cc2)c1=O` (stereo not given) [ITRACONAZOLE], the MIC in the experiment on Aspergillus fumigatus is 0.125 µg/mL (≈ 0.177 µM); in the experiment on Candida albicans [1], 0.03 µg/mL (≈ 0.0425 µM); in the experiment with Cryptococcus neoformans, 0.125 µg/mL (≈ 0.177 µM); with Pichia kudriavzevii, 0.125 µg/mL (≈ 0.177 µM); in the experiment on Candida albicans [2], under 0.03 µg/mL; in the experiment on Candida tropicalis, under 0.03 µg/mL. Also, the MIC with Nakaseomyces glabratus and in the experiment with Candida parapsilosis was 0.125 µg/mL (≈ 0.177 µM) each time.

For the molecule `Fc1cc(F)cc(CC2(Cn3ccnc3)COC(c3ccc(-c4ccsc4)cc3)=N2)c1` (stereo not given), the MIC in the experiment on Aspergillus fumigatus, in the experiment with Candida albicans [1], with Cryptococcus neoformans, in the experiment on Pichia kudriavzevii, with Candida albicans [2] and in the experiment with Candida tropicalis was over 64 µg/mL in each case. Further, the MIC in the experiment with Nakaseomyces glabratus and in the experiment on Candida parapsilosis was over 64 µg/mL throughout.

In the case of `Clc1ccccc1CC1(Cn2ccnc2)COC(c2ccc(-c3ccsc3)cc2)=N1` (stereo not given), the MIC in the experiment on Aspergillus fumigatus is 16 µg/mL (≈ 36.9 µM); with Candida albicans [1] it was 0.125 µg/mL (≈ 0.288 µM); with Cryptococcus neoformans, over 64 µg/mL; with Pichia kudriavzevii, over 64 µg/mL; with Candida albicans [2], 8 µg/mL (≈ 18.4 µM); with Candida tropicalis, 0.5 µg/mL (≈ 1.15 µM). In addition, the MIC in the experiment with Nakaseomyces glabratus was 16 µg/mL (≈ 36.9 µM); in the experiment on Candida parapsilosis it was 1 µg/mL (≈ 2.3 µM).

Turning to `FC(F)(F)Oc1ccc(CC2(Cn3ccnc3)COC(c3ccc(-c4ccsc4)cc3)=N2)cc1` (stereo not given), the MIC in the experiment with Aspergillus fumigatus, with Candida albicans [1], in the experiment with Cryptococcus neoformans, in the experiment on Pichia kudriavzevii, with Candida albicans [2] and in the experiment on Candida tropicalis was over 64 µg/mL each time. The MIC with Nakaseomyces glabratus and in the experiment on Candida parapsilosis was over 64 µg/mL in each case.

With `c1ccc(CC2(Cn3ccnc3)COC(c3ccc(-c4ccoc4)cc3)=N2)cc1` (stereo not given), the MIC with Aspergillus fumigatus was over 64 µg/mL; in the experiment on Candida albicans [1], 0.5 µg/mL (≈ 1.3 µM); with Cryptococcus neoformans, 4 µg/mL (≈ 10.4 µM); in the experiment with Pichia kudriavzevii, over 64 µg/mL; with Candida albicans [2], over 64 µg/mL; in the experiment on Candida tropicalis, over 64 µg/mL. Moreover, the MIC with Nakaseomyces glabratus and in the experiment on Candida parapsilosis was over 64 µg/mL throughout.

Take `Clc1ccc(CC2(Cn3ccnc3)COC(c3ccc(-c4ccsc4)cc3)=N2)c(Cl)c1` (stereo not given): the MIC in the experiment on Aspergillus fumigatus, in the experiment with Candida albicans [1], with Cryptococcus neoformans, in the experiment with Pichia kudriavzevii, with Candida albicans [2] and with Candida tropicalis was over 64 µg/mL each time. Moreover, the MIC in the experiment on Nakaseomyces glabratus and in the experiment with Candida parapsilosis was over 64 µg/mL throughout.

For `FC(F)(F)c1ccccc1CC1(Cn2ccnc2)COC(c2ccc(-c3ccsc3)cc2)=N1` (stereo not given), the MIC in the experiment with Aspergillus fumigatus was 32 µg/mL (≈ 68.4 µM); with Candida albicans [1] it was 0.125 µg/mL (≈ 0.267 µM); in the experiment with Cryptococcus neoformans it was over 64 µg/mL; in the experiment with Pichia kudriavzevii, over 64 µg/mL; with Candida albicans [2], 8 µg/mL (≈ 17.1 µM); in the experiment with Candida tropicalis, 16 µg/mL (≈ 34.2 µM). In addition, the MIC was 16 µg/mL (≈ 34.2 µM) in the experiment on Nakaseomyces glabratus and over 64 µg/mL with Candida parapsilosis.

For the molecule `c1ccc(CC2(Cn3ccnc3)COC(c3cc4ccccc4o3)=N2)cc1` (stereo not given), the MIC in the experiment on Aspergillus fumigatus was over 64 µg/mL; in the experiment with Candida albicans [1], over 64 µg/mL; with Cryptococcus neoformans, over 64 µg/mL; in the experiment with Pichia kudriavzevii, over 64 µg/mL; in the experiment with Candida albicans [2] it was over 64 µg/mL; in the experiment on Candida tropicalis, 8 µg/mL (≈ 22.4 µM). The MIC in the experiment on Nakaseomyces glabratus and with Candida parapsilosis was over 64 µg/mL in each case.

Regarding `CC(C)(C)c1ccc(CC2(Cn3ccnc3)COC(c3ccc(-c4ccsc4)cc3)=N2)cc1` (stereo not given), the MIC in the experiment on Aspergillus fumigatus, in the experiment on Candida albicans [1], with Cryptococcus neoformans, in the experiment with Pichia kudriavzevii, in the experiment with Candida albicans [2] and in the experiment on Candida tropicalis was over 64 µg/mL each time. Moreover, the MIC with Nakaseomyces glabratus and in the experiment on Candida parapsilosis was over 64 µg/mL throughout.

On to `c1ccc(CC2(Cn3ccnc3)COC(c3ccc4c(c3)OCO4)=N2)cc1` (stereo not given), for which the MIC in the experiment with Aspergillus fumigatus, with Candida albicans [1], in the experiment on Cryptococcus neoformans, with Pichia kudriavzevii, in the experiment with Candida albicans [2] and in the experiment with Candida tropicalis was over 64 µg/mL each time. The MIC in the experiment with Nakaseomyces glabratus and in the experiment on Candida parapsilosis was over 64 µg/mL in each case.

For the molecule `CC(C)c1ccc(CC2(Cn3ccnc3)COC(c3ccc(-c4ccsc4)cc3)=N2)cc1` (stereo not given), the MIC in the experiment on Aspergillus fumigatus, in the experiment on Candida albicans [1], in the experiment on Cryptococcus neoformans, with Pichia kudriavzevii, with Candida albicans [2] and with Candida tropicalis was over 64 µg/mL throughout. The MIC with Nakaseomyces glabratus and in the experiment on Candida parapsilosis was over 64 µg/mL each time.

For `c1ccc(CC2(Cn3ccnc3)COC(c3noc4c3CCc3ccccc3-4)=N2)cc1` (stereo not given), the MIC in the experiment on Aspergillus fumigatus was over 64 µg/mL; in the experiment with Candida albicans [1] it was 16 µg/mL (≈ 39 µM); in the experiment on Cryptococcus neoformans, over 64 µg/mL; in the experiment with Pichia kudriavzevii, over 64 µg/mL; in the experiment with Candida albicans [2] it was 32 µg/mL (≈ 78 µM); in the experiment with Candida tropicalis, 32 µg/mL (≈ 78 µM). The MIC in the experiment with Nakaseomyces glabratus is 16 µg/mL (≈ 39 µM); with Candida parapsilosis it was over 64 µg/mL.

On to `Fc1ccc(CC2(Cn3ccnc3)COC(c3ccc(-c4ccsc4)cc3)=N2)c(F)c1` (stereo not given), for which the MIC is over 64 µg/mL in the experiment with Aspergillus fumigatus; over 64 µg/mL in the experiment with Candida albicans [1]; over 64 µg/mL in the experiment on Cryptococcus neoformans; 2 µg/mL (≈ 4.59 µM) with Pichia kudriavzevii; over 64 µg/mL in the experiment with Candida albicans [2]; over 64 µg/mL in the experiment with Candida tropicalis. Besides, the MIC in the experiment with Nakaseomyces glabratus and with Candida parapsilosis was over 64 µg/mL throughout.

In the case of `Fc1cccc(F)c1CC1(Cn2cnnn2)COC(c2ccc(-c3ccsc3)cc2)=N1` (stereo not given), the MIC in the experiment on Aspergillus fumigatus is over 64 µg/mL; with Candida albicans [1], 16 µg/mL (≈ 36.6 µM); in the experiment on Cryptococcus neoformans it was over 64 µg/mL; in the experiment with Pichia kudriavzevii, over 64 µg/mL; in the experiment on Candida albicans [2] it was 16 µg/mL (≈ 36.6 µM); with Candida tropicalis, over 64 µg/mL. For the same molecule, the MIC in the experiment on Nakaseomyces glabratus and with Candida parapsilosis was over 64 µg/mL in each case.

`FC(F)(F)c1ccc(CC2(Cn3ccnc3)COC(c3ccc(-c4ccsc4)cc3)=N2)cc1` (stereo not given): the MIC in the experiment with Aspergillus fumigatus, with Candida albicans [1], in the experiment on Cryptococcus neoformans, in the experiment with Pichia kudriavzevii, in the experiment with Candida albicans [2] and in the experiment on Candida tropicalis was over 64 µg/mL in each case. The minimum inhibitory concentration (MIC) with Nakaseomyces glabratus and in the experiment on Candida parapsilosis was over 64 µg/mL throughout.

In the case of `Clc1cccc(CC2(Cn3ccnc3)COC(c3ccc(-c4ccsc4)cc3)=N2)c1` (stereo not given), the MIC with Aspergillus fumigatus, in the experiment on Candida albicans [1], in the experiment on Cryptococcus neoformans, in the experiment on Pichia kudriavzevii, in the experiment with Candida albicans [2] and with Candida tropicalis was over 64 µg/mL each time. In addition, the MIC with Nakaseomyces glabratus and in the experiment on Candida parapsilosis was over 64 µg/mL each time.

Regarding `Cc1ccc(CC2(Cn3ccnc3)COC(c3ccc(-c4ccsc4)cc3)=N2)cc1` (stereo not given), the MIC with Aspergillus fumigatus, in the experiment on Candida albicans [1], with Cryptococcus neoformans, with Pichia kudriavzevii, with Candida albicans [2] and with Candida tropicalis was over 64 µg/mL throughout. Also, the MIC with Nakaseomyces glabratus and in the experiment with Candida parapsilosis was over 64 µg/mL throughout.

Take `c1ccc(CC2(Cn3ccnc3)COC(c3cc4ccccc4s3)=N2)cc1` (stereo not given): the MIC is over 64 µg/mL in the experiment with Aspergillus fumigatus; over 64 µg/mL in the experiment with Candida albicans [1]; 2 µg/mL (≈ 5.36 µM) in the experiment on Cryptococcus neoformans; over 64 µg/mL in the experiment with Pichia kudriavzevii; over 64 µg/mL with Candida albicans [2]; over 64 µg/mL in the experiment with Candida tropicalis. Also, the MIC in the experiment with Nakaseomyces glabratus and in the experiment with Candida parapsilosis was over 64 µg/mL in each case.

Consider `Fc1ccc(CC2(Cn3ccnc3)COC(c3ccc(-c4ccsc4)cc3)=N2)cc1F` (stereo not given), for which the MIC with Aspergillus fumigatus, with Candida albicans [1], in the experiment on Cryptococcus neoformans, in the experiment with Pichia kudriavzevii, in the experiment on Candida albicans [2] and in the experiment with Candida tropicalis was over 64 µg/mL each time. The MIC in the experiment with Nakaseomyces glabratus and in the experiment with Candida parapsilosis was over 64 µg/mL each time.

Regarding `c1ccc(COc2ccc(C3=NC(Cc4ccccc4)(Cn4ccnc4)CO3)cc2)cc1` (stereo not given), the MIC in the experiment on Aspergillus fumigatus, in the experiment with Candida albicans [1], with Cryptococcus neoformans, in the experiment with Pichia kudriavzevii, in the experiment on Candida albicans [2] and in the experiment with Candida tropicalis was over 64 µg/mL in each case. In addition, the MIC with Nakaseomyces glabratus and in the experiment with Candida parapsilosis was over 64 µg/mL in each case.

As to `Fc1cccc(CC2(Cn3ccnc3)COC(c3ccc(-c4ccsc4)cc3)=N2)c1` (stereo not given), the MIC with Aspergillus fumigatus was over 64 µg/mL; in the experiment on Candida albicans [1] it was over 64 µg/mL; with Cryptococcus neoformans, over 64 µg/mL; with Pichia kudriavzevii, 1 µg/mL (≈ 2.4 µM); in the experiment with Candida albicans [2], over 64 µg/mL; with Candida tropicalis, over 64 µg/mL. In addition, the MIC with Nakaseomyces glabratus and in the experiment with Candida parapsilosis was over 64 µg/mL throughout.

On to `Cc1cccc(CC2(Cn3ccnc3)COC(c3ccc(-c4ccsc4)cc3)=N2)c1` (stereo not given), for which the MIC in the experiment on Aspergillus fumigatus, in the experiment on Candida albicans [1], in the experiment on Cryptococcus neoformans, in the experiment with Pichia kudriavzevii, in the experiment on Candida albicans [2] and with Candida tropicalis was over 64 µg/mL each time. Besides, the MIC in the experiment on Nakaseomyces glabratus and in the experiment with Candida parapsilosis was over 64 µg/mL each time.
